From publication PMC9924227, “IFITM proteins assist cellular uptake of diverse linked chemotypes” (Science (New York, N.Y.), 2022)
Read-outs that look alike come from different tables or passages of the source.

Columns and labels:
Test in all cases: cells
K562 = test system: T1, K562; parameters: dose-response cell viability assay in K562 CRISPRi/CRISPRa CML cells, IC50; conditions: Homo sapiens, read-out: Cell viability IC50 (nM) / No sgRNA
T1 construct: engineered with CRISPRi or CRISPRa machinery, no sgRNA
Description: To further examine the breadth of linked chemotypes that might be assisted by IFITMs, we designed, synthesized, and characterized a new linked molecular glue inhibitor based on the natural product rocaglamide. Rocaglamide clamps the EIF4A1 helicase to 5’ untranslated regions (UTRs) of target mRNAs to inhibit the translation of downstream sequences ([64]). […] We reasoned that dimerization of rocaglamide through its amide position could be a chemically tractable means to simultaneously engage two proximal EIF4A1-RNA complexes within the cell. We designed a molecule, BisRoc-1 (fig. S9B), that links two rocaglamide monomers together with a linker length (35 heavy atoms) exceeding the distance separating two rocaglamide binding sites in the crystal structure (fig. S9A). […] Additionally, we evaluated the relationship between linker length and IFITM assistance by examining an analog series consisting of BisRoc-1 (PEG11), BisRoc-2 (PEG4), BisRoc-3 (PEG2), and rocaglamide (no linker) (fig. S9E). We treated our K562 CRISPRi and CRISPRa cells with these inhibitors and evaluated differences in potency resulting from IFITM expression modulation, as measured by half-maximal inhibitory concentration (IC50) shift in a cell viability assay (fig. S9, E and F, and data file S7). […] Given the ubiquitous presence of IFITMs in cells, we hypothesized that the cellular uptake of other linked inhibitors in the literature could also be assisted by IFITMs. While not generally as large as the linked chemotypes described above, PROTACs are likewise composed of two chemical entities covalently attached by a flexible tether ([16]). Thus, we included four PROTACs (GMB-475, MZ1, BETd-260, and dBET6) and their non-linked parent inhibitors in an expanded survey of chemical-genetic interactions with IFITMs (Fig. 4A, fig. S10, and table S1). These compounds were evaluated in the same IFITM dependency analysis as the BisRoc linker series (Fig. 4B and data file S7). Using RapaLink-1 as a chemical benchmark, we observed that IFITM1, IFITM2, and IFITM3 overexpression sensitized cells to linked chemotypes (Fig. 4B; compounds 9-17). The inverse finding, resistance to linked chemotypes, resulted from gene knockdown (Fig. 4B). The trend observed in the BisRoc series was corroborated across the 9 bivalent molecules tested (Fig. 4B): the magnitudes of chemical-genetic interactions correlated with linker length which is reflected in inhibitor size (molecular weight) and flexibility (number of rotatable bonds). Linked chemotypes with long linkers were more IFITM-assisted than linked chemotypes with short linkers, and non-linked chemotypes (Fig. 4B; compounds 1-8) were not observed to be assisted by IFITMs (Fig. 4B). Despite their cellular activities, the physicochemical properties of the linked chemotypes largely violate Lipinski’s ([1]) and Veber’s ([2]) classic guidelines (Fig. 4, A to C, and table S1), raising the need for a revised drug design framework that considers IFITM-assisted uptake and other cellular import processes.  Fig. 4. IFITMs assist the cellular activity of diverse linked chemotypes. (A) Heavy atom skeletons of compounds assessed for IFITM assistance (see also fig. S10 for chemical structures). Compounds were categorized as non-linked chemotypes (compounds 1–8, black), linked chemotypes with short linkers (compounds 9–14, gray), or linked chemotypes with long linkers (compounds 15–17, green). (B) Chemical-genetic interaction map of inhibitors in (A) with IFITM1, IFTM2, and IFITM3. Potency, as measured by dose-response IC50 in a cell viability assay (see also Fig. 1F, Fig. 3D, or fig. S9D for example source data), was normalized to that of non-sgRNA-expressing K562 CRISPRi or CRISPRa cells. Physicochemical properties, including molecular weight (MW) and number of rotatable bonds, with their respective traditional thresholds for drug-likeness are indicated (right). Data represent means of three biological replicates. […]

K562 CRISPRi = test system: K562 CRISPRi; parameters: Cell viability dose-response in K562 CRISPRi/CRISPRa cells; IC50 from fitted curve; conditions: Homo sapiens, non-targeting control sgRNA, read-out: Cell viability IC50 (nM) / NegCtrl sg
Description: (§1) To further examine the breadth of linked chemotypes that might be assisted by IFITMs, we designed, synthesized, and characterized a new linked molecular glue inhibitor based on the natural product rocaglamide. Rocaglamide clamps the EIF4A1 helicase to 5’ untranslated regions (UTRs) of target mRNAs to inhibit the translation of downstream sequences ([64]). […] We reasoned that dimerization of rocaglamide through its amide position could be a chemically tractable means to simultaneously engage two proximal EIF4A1-RNA complexes within the cell. We designed a molecule, BisRoc-1 (fig. S9B), that links two rocaglamide monomers together with a linker length (35 heavy atoms) exceeding the distance separating two rocaglamide binding sites in the crystal structure (fig. S9A). […] Additionally, we evaluated the relationship between linker length and IFITM assistance by examining an analog series consisting of BisRoc-1 (PEG11), BisRoc-2 (PEG4), BisRoc-3 (PEG2), and rocaglamide (no linker) (fig. S9E). We treated our K562 CRISPRi and CRISPRa cells with these inhibitors and evaluated differences in potency resulting from IFITM expression modulation, as measured by half-maximal inhibitory concentration (IC50) shift in a cell viability assay (fig. S9, E and F, and data file S7). […] IFITMs assist the cellular activity of diverse linked chemotypes. (A) Heavy atom skeletons of compounds assessed for IFITM assistance (see also fig. S10 for chemical structures). Compounds were categorized as non-linked chemotypes (compounds 1–8, black), linked chemotypes with short linkers (compounds 9–14, gray), or linked chemotypes with long linkers (compounds 15–17, green). (B) Chemical-genetic interaction map of inhibitors in (A) with IFITM1, IFTM2, and IFITM3. Potency, as measured by dose-response IC50 in a cell viability assay (see also Fig. 1F, Fig. 3D, or fig. S9D for example source data), was normalized to that of non-sgRNA-expressing K562 CRISPRi or CRISPRa cells. Physicochemical properties, including molecular weight (MW) and number of rotatable bonds, with their respective traditional thresholds for drug-likeness are indicated (right). Data represent means of three biological replicates. (C) Map of chemical space populated by 304 kinase inhibitors in clinical development (black), 3270 PROTACs reported in the literature (gray), and 3 linked chemotypes described herein (green). Boundaries represent traditional guidelines for drug-likeness.

K562 CRISPRa = test system: K562 CRISPRa; parameters: Cell viability dose-response in K562 CRISPRi/CRISPRa cells; IC50 from fitted curve; conditions: Homo sapiens; sheet K562 CRISPRa IC50;; non-targeting control sgRNA; read-out: Cell viability IC50 (nM) / NegCtrl sg
Description: as §1

[1] = sheet K562 CRISPRa IC50, no sgRNA

SMILES | IC50 (K562; [1]) [nM] | IC50 (K562; Cells=K562 CRISPRi, no sgRNA) [nM] | IC50 (K562 CRISPRi) [nM] | IC50 (K562 CRISPRa) [nM]
CO[C@@H]1C[C@@H]2CC[C@@H](C)[C@@](O)(O2)C(=O)C(=O)N2CCCC[C@@H]2C(=O)O[C@H]([C@H](C)C[C@H]2CC[C@H](OCCOCc3cn(CCOCCOCCOCCOCCOCCOCCOCCOCCC(=O)NCCCCn4nc(-c5ccc6oc(N)nc6c5)c5c(N)ncnc54)nn3)[C@H](OC)C2)CC(=O)[C@H](C)/C=C(/C)[C@H](O)[C@@H](OC)C(=O)[C@H](C)C[C@H](C)\C=C/C=C\C=C/1C (stereo in doubt) [RapaLink-1] | 2.23 | 1.19 | 1.25 | 2.07
CCn1nc(C2CC2)cc1Nc1nc(C(=O)NCCCCCc2cccc3c2CN(C2CCC(=O)NC2=O)C3=O)nc2[nH]c3cc(-c4c(C)noc4C)c(OC)cc3c12 (centres unmarked) [BETd-260] | 1.15 | 3.79 | 3.88 | 1.04
Cc1ncsc1-c1ccc(CNC(=O)[C@@H]2C[C@@H](O)CN2C(=O)[C@@H](NC(=O)COCCOc2ccc(-c3cc(Nc4ccc(OC(F)(F)F)cc4)ncn3)cc2)C(C)(C)C)cc1 [GMB-475] | 212 | 264 | 249 | 179
NC(=O)c1cccc(-c2cc(Nc3ccc(OC(F)(F)F)cc3)ncn2)c1 [GNF-2] | 202 | 291 | 284 | 205
CCn1nc(C2CC2)cc1Nc1nc(C(=O)NC)nc2[nH]c3cc(-c4c(C)noc4C)c(OC)cc3c12 [HJB97] | 11.6 | 46.8 | 41.5 | 9.74
Cc1sc2c(c1C)C(c1ccc(Cl)cc1)=N[C@@H](CC(=O)OC(C)(C)C)c1nnc(C)n1-2 [JQ1] | 24.4 | 118 | 121 | 22.2
Cc1ncsc1-c1ccc(CNC(=O)[C@@H]2C[C@@H](O)CN2C(=O)[C@@H](NC(=O)COCCOCCOCCNC(=O)C[C@@H]2N=C(c3ccc(Cl)cc3)c3c(sc(C)c3C)-n3c(C)nnc32)C(C)(C)C)cc1 [MZ1] | 31.4 | 135 | 146 | 33.3
CO[C@H]1C[C@@H]2CC[C@@H](C)[C@@](O)(O2)C(=O)C(=O)N2CCCC[C@H]2C(=O)O[C@H]([C@H](C)C[C@@H]2CC[C@@H](O)[C@H](OC)C2)CC(=O)[C@H](C)/C=C(\C)[C@@H](O)[C@@H](OC)C(=O)[C@H](C)C[C@H](C)/C=C/C=C/C=C/1C [Rapamycin] | 0.356 | 0.743 | 0.776 | 0.376
COc1ccc([C@@]23Oc4cc(OC)cc(OC)c4[C@]2(O)[C@H](O)[C@H](C(=O)N(C)C)[C@H]3c2ccccc2)cc1 [Rocaglamide] | 7.65 | 7.23 | 6.86 | 6.97
CC(C)n1nc(-c2ccc3oc(N)nc3c2)c2c(N)ncnc21 [Sapanisertib] | 14.2 | 24.6 | 24.4 | 15.3
Cc1sc2c(c1C)C(c1ccc(Cl)cc1)=N[C@@H](CC(=O)NCCCCCCCCNC(=O)COc1cccc3c1C(=O)N(C1CCC(=O)NC1=O)C3=O)c1nnc(C)n1-2 (some centres unmarked) [dBET6] | 3.26 | 11.7 | 12.6 | 3.04
